In the supplement of paper PMC6580486:
Counter-ions that a name gives are not always drawn.

Legend:
[1] = system: FU-EPS-1
Procedure: (§1)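 60-agent targeted drug screens (Drug Screen V3 on epithelioid sarcoma cultures PCB490-3/4/5, PCB495, EPS cell lines ESX, VA-ES-BJ, FU-EPS-1 and SkMc myoblasts; PPTI screen v2.1 on human UPS PCB197 and canine UPS S1-12). 384-well plates, 72 h, CellTiter-Glo viability; IC50 by Hill curve fit. 10000 nM = no IC50 achieved (top reported value).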

[2] = system: PCB-490-5 (human epithelioid sarcoma primary culture)
Procedure: as §1

[3] = system: PCB-495 (human epithelioid sarcoma primary culture)
Procedure: as §1

[4] = system: ESX
Procedure: as §1

[5] = system: VA-ES-BJ
Procedure: as §1

[6] = system: s1-12 (canine undifferentiated pleomorphic sarcoma culture)
Procedure: as §1

[7] = system: SkMc
Procedure: as §1

[8] = system: pcb-00197 (human undifferentiated pleomorphic sarcoma culture)
Procedure: as §1

[9] = system: PCB-490-3 (human epithelioid sarcoma primary culture)
Procedure: as §1

[10] = system: PCB-490-4 (human epithelioid sarcoma primary culture)
Procedure: as §1

| SMILES | IC50 cell viability [1] | IC50 cell viability [2] | IC50 cell viability [3] | IC50 cell viability [4] | IC50 cell viability [5] | IC50 cell viability [6] | IC50 cell viability [7] | IC50 cell viability [8] | IC50 cell viability [9] | IC50 cell viability [10] |
| --- | --- | --- | --- | --- | --- | --- | --- | --- | --- | --- |
| CC(C)(C(=O)NCC(F)(F)C(F)(F)F)C(=O)N[C@@H]1C(=O)Nc2ccccc2-c2ccccc21 | > 10 µM | > 10 µM | > 10 µM | > 10 µM | > 10 µM | > 10 µM | 3.76 µM | > 10 µM | > 10 µM | > 10 µM |
| CCc1cnn2c(NCc3ccc[n+]([O-])c3)cc(N3CCCC[C@H]3CCO)nc12 [Dinaciclib] | > 10 µM | > 10 µM | 0.01 µM | 0.01 µM | 0.01 µM | 0.01 µM | > 10 µM | > 10 µM | > 10 µM | 0.1 µM |
| C=C[C@@]1(C)CC(=O)[C@]2(O)[C@@]3(C)[C@@H](O)CCC(C)(C)[C@@H]3[C@H](O)[C@H](OC(C)=O)[C@@]2(C)O1 [Forskolin] | > 10 µM | > 10 µM | > 10 µM | > 10 µM | > 10 µM |  | > 10 µM |  | > 10 µM | > 10 µM |
| COc1cc2nc(N3CCCN(C)CC3)nc(NC3CCN(Cc4ccccc4)CC3)c2cc1OC | 1.01 µM | 6.69 µM | 1.38 µM | 0.2 µM | 6.57 µM | 1.72 µM | 0.15 µM | 6.05 µM | 3.14 µM | 1.82 µM |
| CC[C@@H]1C(=O)N(C)c2cnc(Nc3ccc(C(=O)N[C@H]4CC[C@H](N5CCN(CC6CC6)CC5)CC4)cc3OC)nc2N1C(C)C [Volasertib] | 0.35 µM | > 10 µM | 6.54 µM | 6.23 µM | 1.09 µM |  | > 10 µM |  | > 10 µM | > 10 µM |
| CCOC(=O)CCNc1cc(N2CCc3ccccc3CC2)nc(-c2ccccn2)n1 [GSK-J4 HCl] | > 10 µM | > 10 µM | > 10 µM | 1.58 µM | 4.72 µM |  | > 10 µM |  | > 10 µM | > 10 µM |
| COCC[n+]1c2c(n(Cc3cnccn3)c1C)C(=O)c1ccccc1C2=O [YM155] | 0.01 µM | 0.16 µM | 0.07 µM | 0.02 µM | 0.01 µM |  | 0.28 µM |  | 0.15 µM | 0.27 µM |
| Nc1nc(Nc2ccc(S(N)(=O)=O)cc2)nn1C(=S)Nc1c(F)cccc1F [Cdk1/2 inhibitor III] | > 10 µM | 1.1 µM | 0.42 µM | 0.2 µM | 0.13 µM |  | 0.29 µM |  | 1.41 µM | 1.02 µM |
| C[C@]1(O)C[C@@H](c2nc(-c3ccc4ccc(-c5ccccc5)nc4c3)c3c(N)nccn32)C1 [OSI-906] | > 10 µM | > 10 µM | > 10 µM | 0.02 µM | > 10 µM | 1.07 µM | > 10 µM | > 10 µM | > 10 µM | > 10 µM |
| CC(C)n1c(/C=C/C(O)CC(O)CC(=O)O)c(-c2ccc(F)cc2)c2ccccc21 (stereo unspecified) [Fluvastatin] | 1.48 µM | 1.32 µM | 0.08 µM | 2.5 µM | 0.1 µM |  | 8.73 µM |  | 1.32 µM | 4.28 µM |
| CN[C@@H](C)C(=O)N[C@H](C(=O)N1CCC[C@H]1c1nc(C(=O)c2ccc(F)cc2)cs1)C1CCCCC1 [LCL161] | > 10 µM | > 10 µM | > 10 µM | 1.8 µM | 3.15 µM |  | > 10 µM |  | > 10 µM | > 10 µM |
| Cc1cc(-c2ncc(CC(=O)Nc3ccc(-c4cnccn4)cn3)cc2C)ccn1 [LGK974] | > 10 µM | > 10 µM | > 10 µM | > 10 µM | > 10 µM |  | > 10 µM |  | > 10 µM | > 10 µM |
| CS(=O)(=O)c1cccc(CNc2nc(Nc3ccc4c(c3)CCC(=O)N4)ncc2C(F)(F)F)c1 | > 10 µM | > 10 µM | > 10 µM | > 10 µM | > 10 µM |  | > 10 µM |  | > 10 µM | > 10 µM |
| CC1(C)CCC(c2ccc(Cl)cc2)=C(CN2CCN(c3ccc(C(=O)NS(=O)(=O)c4ccc(N[C@H](CCN5CCOCC5)CSc5ccccc5)c(S(=O)(=O)C(F)(F)F)c4)cc3)CC2)C1 [ABT-263] | > 10 µM | > 10 µM | > 10 µM | > 10 µM | > 10 µM |  | > 10 µM |  | > 10 µM | > 10 µM |
| Clc1ccc(NN=C(c2ccccc2)c2ccccn2)nc1 [JIB-04] | 2.4 µM | 1.62 µM | 1.14 µM | 0.6 µM | 1.69 µM |  | 1.41 µM |  | > 10 µM | 3.73 µM |
| CCOc1cc(C(C)(C)C)ccc1C1=N[C@@](C)(c2ccc(Cl)cc2)[C@@](C)(c2ccc(Cl)cc2)N1C(=O)N1CCN(CCCS(C)(=O)=O)CC1 | > 10 µM | > 10 µM | > 10 µM | > 10 µM | > 10 µM | > 10 µM | > 10 µM | > 10 µM | > 10 µM | > 10 µM |
| CO[C@@H]1[C@H](N(C)C(=O)c2ccccc2)C[C@H]2O[C@]1(C)n1c3ccccc3c3c4c(c5c6ccccc6n2c5c31)C(=O)NC4 [PKC412] | > 10 µM | 1.73 µM | 1.36 µM | 6.4 µM | 1.8 µM |  | > 10 µM |  | > 10 µM | 1.25 µM |

| SMILES | IC50 cell viability [1] | IC50 cell viability [2] | IC50 cell viability [3] | IC50 cell viability [4] | IC50 cell viability [5] | IC50 cell viability [6] | IC50 cell viability [7] | IC50 cell viability [8] | IC50 cell viability [9] | IC50 cell viability [10] |
| --- | --- | --- | --- | --- | --- | --- | --- | --- | --- | --- |
| C[C@@H](Oc1ccc2[nH]nc(/C=C/c3cnn(CCO)c3)c2c1)c1c(Cl)cncc1Cl | > 10 µM | 0.46 µM | 0.19 µM | 4.52 µM | > 10 µM |  | > 10 µM |  | 1.73 µM | 0.5 µM |
| CN1CCc2c(c3ccccc3n2Cc2ccc(C(=O)NO)cc2)C1 [Tubastatin A] | > 10 µM | > 10 µM | > 10 µM | > 10 µM | > 10 µM |  | > 10 µM |  | > 10 µM | > 10 µM |
| O=C1NC(=O)C(c2cnc3ccccn23)=C1c1cn2c3c(cc(F)cc13)CN(C(=O)N1CCCCC1)CC2 | > 10 µM | > 10 µM | > 10 µM | 1.52 µM | > 10 µM |  | 0.2 µM |  | > 10 µM | > 10 µM |
| C=CCn1c(=O)c2cnc(Nc3ccc(N4CCN(C)CC4)cc3)nc2n1-c1cccc(C(C)(C)O)n1 [MK-1775] | 1.01 µM | > 10 µM | > 10 µM | 0.17 µM | 0.3 µM |  | 0.16 µM |  | > 10 µM | > 10 µM |
| CN1CCC(CNc2ccc3ncc(-c4cccc(OC(F)(F)F)c4)n3n2)CC1 [SGI-1776] | 1.7 µM | 1.85 µM | 7.51 µM | 0.15 µM | 4.81 µM |  | 2.84 µM |  | 4.5 µM | 2.03 µM |
| Nc1ccccc1NC(=O)c1ccc(CNC(=O)OCc2cccnc2)cc1 [Entinostat] | 2.69 µM | > 10 µM | > 10 µM | > 10 µM | 1.18 µM | 0.92 µM | > 10 µM | > 10 µM | > 10 µM | > 10 µM |
| Cc1ccc(-c2cc(C(F)(F)F)nn2-c2ccc(S(N)(=O)=O)cc2)cc1 [Celecoxib] | > 10 µM | > 10 µM | > 10 µM | > 10 µM | > 10 µM |  | > 10 µM |  | > 10 µM | > 10 µM |
| CC[C@H](C)n1cc(C)c2c(C(=O)NCc3c(C)cc(C)[nH]c3=O)cc(-c3ccc(N4CCNCC4)nc3)cc21 [GSK126] | > 10 µM | > 10 µM | > 10 µM | > 10 µM | > 10 µM |  | 0.44 µM |  | > 10 µM | > 10 µM |
| CN(C(=O)c1ccc(F)cc1C(F)(F)F)C1CCN(c2nnc(-c3ccnn3C)c3ccccc23)CC1 | > 10 µM | > 10 µM | > 10 µM | > 10 µM | > 10 µM |  | > 10 µM |  | > 10 µM | > 10 µM |
| Nc1nc2c(ncn2COC(CO)CO)c(=O)[nH]1 [Ganciclovir] | 0.02 µM | > 10 µM | > 10 µM | > 10 µM | > 10 µM |  | > 10 µM |  | > 10 µM | > 10 µM |
| N#CC[C@H](C1CCCC1)n1cc(-c2ncnc3[nH]ccc23)cn1 [Ruxolitinib] | > 10 µM | > 10 µM | > 10 µM | > 10 µM | > 10 µM |  | > 10 µM |  | > 10 µM | > 10 µM |
| COc1ccc(C[C@@H](C)[C@@H](C)Cc2ccc(OC)c(OC)c2)cc1OC [EM1421] | > 10 µM | > 10 µM | > 10 µM | > 10 µM | > 10 µM |  | > 10 µM |  | > 10 µM | > 10 µM |
| CO[C@H]1C[C@@H]2CC[C@@H](C)[C@@](O)(O2)C(=O)C(=O)N2CCCC[C@H]2C(=O)O[C@H]([C@H](C)C[C@@H]2CC[C@@H](O)[C@H](OC)C2)CC(=O)[C@H](C)/C=C(\C)[C@@H](O)[C@@H](OC)C(=O)[C@H](C)C[C@H](C)/C=C/C=C/C=C/1C [Sirolimus] | > 10 µM | > 10 µM | > 10 µM | > 10 µM | > 10 µM |  | 0.29 µM |  | > 10 µM | > 10 µM |
| Cc1nc(Nc2ncc(C(=O)Nc3c(C)cccc3Cl)s2)cc(N2CCN(CCO)CC2)n1 [Dasatinib] | > 10 µM | 0.39 µM | > 10 µM | > 10 µM | > 10 µM |  | 0.05 µM |  | 1.27 µM | 0.17 µM |
| CC(C)N(CCCNC(=O)Nc1ccc(C(C)(C)C)cc1)C[C@H]1O[C@@H](n2cc(Br)c3c(N)ncnc32)[C@H](O)[C@@H]1O [SGC0946] | 1.48 µM | > 10 µM | 0.6 µM | 0.62 µM | 0.49 µM |  | 0.1 µM |  | > 10 µM | > 10 µM |
| COc1cccc(OCCCN)c1-c1cc(Nc2cnc(C#N)cn2)n[nH]1 | > 10 µM | > 10 µM | 3.17 µM | 0.23 µM | 0.69 µM |  | 1.29 µM |  | > 10 µM | > 10 µM |
